# Patent US20030187003A1, “Pharmaceutical compositions and method for the treatment of retroviral infections” (priority 2000, published 2003)
# Legend:
# [1] = test system: HIV-2 (EHO); experiment: inhibition of virus-induced cytopathicity in MT-4 cells, HIV-2 (EHO); format: cell-based; conditions: Human immunodeficiency virus 2, MT4, 120 h, read-out: EC50 HIV-2 EHO
# [2] = test system: HIV-1 L1; experiment: inhibition of virus-induced cytopathicity in MT-4 cells, HIV-1 clinical isolate L1; format: cell-based; conditions: Human immunodeficiency virus 1, MT4, 120 h, read-out: EC50 HIV-1 L1
# [3] = target: T1, integrase (Human immunodeficiency virus type 1 group M subtype B, UniProt P04585); experiment: kinetic cleavage assay, conversion of initial stable complex into cleaved product; format: biochemical, HIV-1; conditions: in the presence of 50 μM compound, added after preincubation with dextran sulfate
# T1 construct: encoding HIV-1 IN (strain HTLV III); made in house; host or cells: E. coli PC1 (BL21(DE3)(pLysS) ΔendA::TcR)
# Procedure: When dextran sulfate with a molecular weight of 5,000 was added at a final concentration of 0.3 μM, further binding of integrase to the oligonucleotide was blocked. At several periods of time, 5 μl aliquots were taken and the reaction was stopped using 5 μl formamide loading buffer (having the same composition as above). The rate constant for the conversion of ISC into the cleaved product can be calculated using the formula: A-Be^−kt. In order to examine the inhibitory effect of compound H on 3′-processing, we repeated the same experiment in the presence of 50 μM compound (added after preincubation, together with dextran sulfate) and compared the rate constants: In the absence of compound H, it was calculated at 0.152±0.038 min^−1 in its presence at 0.147±0.025 min^−1. This quite similar value rules out that compound H directly affects the catalysis of 3′-processing.
# [4] = test system: HIV-2 (ROD); experiment: inhibition of virus-induced cytopathicity in MT-4 cells, HIV-2 (ROD); format: cell-based; conditions: Human immunodeficiency virus 2, MT4, 120 h, read-out: EC50 HIV-2 ROD
# [5] = target: recombinant His-tagged HIV-1 integrase (Human immunodeficiency virus type 1 group M subtype B, UniProt P04585); experiment: HIV-1 integrase overall integration assay, oligonucleotide-based
# Procedure: Reactions were started by the addition of the enzyme. Inhibitors were incubated shortly with the reaction components before the addition of integrase. Reactions were allowed to proceed at 37° C. for 7 minutes and stopped by the addition of formamide loading buffer (95% formamide, 30 mM ethylenediamine tetraacetic acid, 0.1% xylene cyanol, 0.1% bromophenol blue, 0.1% sodium dilaurylsulfate SDS). In the overall integration assay, this reaction was allowed to proceed for 60 minutes before the addition of a formamide dye.
# [6] = target: T2, HIV-1 integrase (Human immunodeficiency virus type 1 group M subtype B, UniProt P04585); experiment: HIV-1 integrase binding assay, biosensor (BIAcore); conditions: preincubation of integrase with 93 μM compound, 37° C.
# T2 construct: HIV-1 integrase (100 μl of a 33 μM solution)
# Procedure: Binding experiments were carried out using biosensor technology on BlAcore2000 (Biacore) and sensor chips SA™ with pre-immobilized streptavidin. The binding experiment was carried out at 37° C. following the procedures of the manufacturer. The binding buffer B (20 mM HEPES at pH 7.5) contained 50 mM NaCI, 10 mM MgCl2 and 5 mM DTT. First, the 3′-biotinylated oligonucleotide 5′-[…]-3′ was bound to the sensor chip. Subsequently, the complementary 35-mer 5′-[…]-3′ was hybridized to the captured oligonucleotide, resulting in an integrase recognition sequence at the free end. HIV-1 integrase (100 μl of a 33 μM solution) diluted 10-fold in dilution buffer (10 mM Tris.HCl, pH7.5/750 mM NaCl/10% glycerol/1 mM β-mercaptoethanol) and another 10-fold in buffer B, was injected at a final concentration of 330 nM with a flow rate of 10 μl/minute passing first a blank channel and then the channel with the specific oligonucleotide. A specific adsorption in the blank channel was subtracted.
smiles,measurement,setting,value
"O=[N+]([O-])c1ccc(C2c3c(O)nc(S)nc3Oc3nc(S)nc(O)c32)cc1 [compound H, 5-(4-nitrophenyl)-2,8-dithiol-4,6-dihydroxy-5H-pyrano[2,3-d:6,5-d′]dipyrimidine]",EC50,[1],3.7 ± 0.1 µM
same,EC50,[2],3.7 ± 1.8 µM
same,rate constant for the conversion of ISC into the cleaved product,[3],0.147 ± 0.025 min⁻¹
same,EC50,[4],30 ± 6.2 µM
same,IC50,[5],0.3 ± 0.2 µM
same,inhibition of the overall integration reaction,[5]; in words,inhibited
same,binding of integrase to the DNA,[6],completely abolished
